Reference: patent US11807644B2 (PMV Pharmaceuticals, Inc., priority 2020, dated 2023)

The compounds below were run against T1, recombinant His-tag Y220C p53 DBD protein (Homo sapiens, UniProt P04637, Y220C) (assay: In vitro DNA binding activity assay (TR-FRET): binding of His-tag Y220C p53 DBD to biotin-labeled consensus DNA). Details: SC150 = concentration to increase DNA binding by […], His-tag Y220C p53 DBD, biotin-labeled consensus DNA.
T1 construct: recombinant His-tag Y220C p53 DBD protein (amino acids #˜94-312)
Type: biochemical

SMILES	Y220C SC150 (μM)
O=S1(=O)CCC(Nc2cccc3c2cc(-c2cnn(CCO)c2)n3CC(F)(F)F)CC1 [Compound 15B, 4-({2-[1-(2-hydroxyethyl)-1H-pyrazol-4-yl]-1-(2,2,2-trifluoroethyl)-1H-indol-4-yl}amino)-1λ^6-thiane-1,1-dione]	**** (**** = 1 μM ≤ SC150 < 10 μM)
CN1CC[C@@H](Nc2cccc3c2cc(-c2noc(CNC(=O)[C@@H]4C[C@H]4c4cnn(C)c4)n2)n3CC(F)(F)F)[C@@H](F)C1 [Compound 225B, (1R,2R)-N-{[3-(4-{[(3S,4R)-3-fluoro-1-methylpiperidin-4-yl]amino}-1-(2,2,2-trifluoroethyl)-1H-indol-2-yl)-1,2,4-oxadiazol-5-yl]methyl}-2-(1-methyl-1H-pyrazol-4-yl)cyclopropane-1-carboxamide]	* (* = 0 μM ≤ SC150 < 0.1 μM)
CN1CC[C@@H](Nc2cccc3c2cc(-c2noc(CNC(=O)c4cnn(CCF)c4)n2)n3CC(F)(F)F)[C@@H](F)C1 [Compound 301B]	* (* = 0 μM ≤ SC150 < 0.1 μM)
O=C(NCc1nc(-c2cc3c(NC4CCS(=O)(=O)CC4)cccc3n2CC(F)(F)F)no1)C1CC1 [Compound 162B, N-[(3-{4-[(1,1-dioxo-1λ^6-thian-4-yl)amino]-1-(2,2,2-trifluoroethyl)-1H-indol-2-yl}-1,2,4-oxadiazol-5-yl)methyl]cyclopropanecarboxamide]	* (* = 0 μM ≤ SC150 < 0.1 μM)
CCCNC[C@@H]1C[C@H]1C(=O)NCc1nc(-c2cc3c(N[C@@H]4CCN(C)C[C@@H]4F)cccc3n2CC(F)(F)F)no1 [Compound 247B, (1R,2R)-N-{[3-(4-{[(3S,4R)-3-fluoro-1-methylpiperidin-4-yl]amino}-1-(2,2,2-trifluoroethyl)-1H-indol-2-yl)-1,2,4-oxadiazol-5-yl]methyl}-2-[(propylamino)methyl]cyclopro-pane-1-carboxamide]	* (* = 0 μM ≤ SC150 < 0.1 μM)
CN1CC[C@@H](Nc2cccc3c2cc(-c2noc(C(=O)NCc4ccccc4)n2)n3CC(F)(F)F)[C@@H](F)C1 [Compound 544B, N-benzyl-3-(4-{[(3S,4R)-3-fluoro-1-methylpiperidin-4-yl]amino}-1-(2,2,2-trifluoroethyl)-1H-indol-2-yl)-1,2,4-oxadiazole-5-carboxamide]	** (** = 0.1 μM ≤ SC150 < 0.5 μM)
CN1CC[C@@H](Nc2cccc3c2cc(-c2noc(C(=O)NCC4CCOCC4)n2)n3CC(F)(F)F)[C@@H](F)C1 [Compound 558B, 3-(4-{[(3S,4R)-3-fluoro-1-methylpiperidin-4-yl]amino}-1-(2,2,2-trifluoroethyl)-1H-indol-2-yl)-N-[(oxan-4-yl)methyl]-1,2,4-oxadiazole-5-carboxamide]	* (* = 0 μM ≤ SC150 < 0.1 μM)
CC(C)(C)n1ccc(C(=O)NCc2nc(-c3cc4c(NC5CCC(F)(F)CC5)cccc4n3CC(F)(F)F)no2)c1 [Compound 328B, 1-tert-butyl-N-[(3-{4-[(4,4-difluorocyclohexyl)amino]-1-(2,2,2-trifluoroethyl)-1H-indol-2-yl}-1,2,4-oxadiazol-5-yl)methyl]-1H-pyrrole-3-carboxamide]	* (* = 0 μM ≤ SC150 < 0.1 μM)
CO[C@H]1CCCC[C@@H]1n1ccc(C(=O)NCc2nc(-c3cc4c(N[C@@H]5CCN(C)C[C@@H]5F)cccc4n3CC(F)(F)F)no2)c1 (relative stereo) [Compound 384B]	* (* = 0 μM ≤ SC150 < 0.1 μM)
CN1CC[C@@H](Nc2cccc3c2cc(-c2nc(CNC(=O)c4ccsc4)no2)n3CC(F)(F)F)[C@@H](F)C1 (racemic) [Compound 278B, (+/−)-N-{[5-(4-{[(3R,4S)-3-fluoro-1-methylpiperidin-4-yl]amino}-1-(2,2,2-trifluoroethyl)-1H-indol-2-yl)-1,2,4-oxadiazol-3-yl]methyl}thiophene-3-carboxamide]	* (* = 0 μM ≤ SC150 < 0.1 μM)
CN1CC[C@@H](Nc2cccc3c2cc(-c2noc(CNC(=O)c4coc(C(C)(C)C)n4)n2)n3CC(F)(F)F)[C@@H](F)C1 [Compound 440B, 2-tert-butyl-N-{[3-(4-{[(3S,4R)-3-fluoro-1-methylpiperidin-4-yl]amino}-1-(2,2,2-trifluoroethyl)-1H-indol-2-yl)-1,2,4-oxadiazol-5-yl]methyl}-1,3-oxazole-4-carboxamide]	* (* = 0 μM ≤ SC150 < 0.1 μM)
CN1CC[C@@H](Nc2cccc3c2cc(-c2noc(CNC(=O)[C@H]4CC4(C)C)n2)n3CC(F)(F)F)[C@@H](F)C1 [Compound 233B, (1S)-N-{[3-(4-{[(3S,4R)-3-fluoro-1-methylpiperidin-4-yl]amino}-1-(2,2,2-trifluoroethyl)-1H-indol-2-yl)-1,2,4-oxadiazol-5-yl]methyl}-2,2-dimethylcyclopropane-1-carboxamide]	* (* = 0 μM ≤ SC150 < 0.1 μM)
CN1CCC(Nc2cccc3c2cc(-c2noc(CNC(=O)[C@@H]4C[C@H]4c4ccccc4)n2)n3CC(F)(F)F)CC1 (racemic) [Compound 156B, (+/−)-(1R,2R)—N-[(3-{4-[(1-methylpiperidin-4-yl)amino]-1-(2,2,2-trifluoroethyl)-1H-indol-2-yl}-1,2,4-oxadiazol-5-yl)methyl]-2-phenylcyclopropane-1-carboxamide]	* (* = 0 μM ≤ SC150 < 0.1 μM)
CN1CC[C@@H](Nc2cccc3c2cc(-c2noc(CNC(=O)c4cccc(C(C)(C)O)c4)n2)n3CC(F)(F)F)[C@@H](F)C1 [Compound 549B, N-{[3-(4-{[(3S,4R)-3-fluoro-1-methylpiperidin-4-yl]amino}-1-(2,2,2-trifluoroethyl)-1H-indol-2-yl)-1,2,4-oxadiazol-5-yl]methyl}-3-(2-hydroxypropan-2-yl)benzamide]	* (* = 0 μM ≤ SC150 < 0.1 μM)
CN1CCC(Nc2cccc3c2cc(-c2cc(C(N)c4ccccc4)[nH]n2)n3CC(F)(F)F)CC1 (stereo not drawn) [Compound 20B, 2-{5-[amino(phenyl)methyl]-1H-pyrazol-3-yl}-N-(1-methylpiperidin-4-yl)-1-(2,2,2-trifluoroethyl)-1H-indol-4-amine]	**** (**** = 1 μM ≤ SC150 < 10 μM)
COc1ccc(C(=O)NCc2nc(-c3cc4c(N[C@@H]5CCN(C)C[C@@H]5F)cccc4n3CC(F)(F)F)no2)cc1 [Compound 295B, N-{[3-(4-{[(3S,4R)-3-fluoro-1-methylpiperidin-4-yl]amino}-1-(2,2,2-trifluoroethyl)-1H-indol-2-yl)-1,2,4-oxadiazol-5-yl]methyl}-4-methoxybenzamide]	* (* = 0 μM ≤ SC150 < 0.1 μM)
CN1CC[C@@H](Nc2cccc3c2cc(-c2noc(CNC(=O)[C@@H]4C[C@H]4c4ccccc4F)n2)n3CC(F)(F)F)[C@@H](F)C1 [Compound 224B, (1R,2R)-N-{[3-(4-{[(3S,4R)-3-fluoro-1-methylpiperidin-4-yl]amino}-1-(2,2,2-trifluoroethyl)-1H-indol-2-yl)-1,2,4-oxadiazol-5-yl]methyl}-2-(2-fluorophenyl)cyclopropane-1-carboxamide]	* (* = 0 μM ≤ SC150 < 0.1 μM)
CN1CC[C@@H](Nc2cccc3c2cc(-c2noc(CNC(=O)c4csc(N5CC6(COC6)C5)n4)n2)n3CC(F)(F)F)[C@@H](F)C1 [Compound 527B, N-{[3-(4-{[(3S,4R)-3-fluoro-1-methylpiperidin-4-yl]amino}-1-(2,2,2-trifluoroethyl)-1H-indol-2-yl)-1,2,4-oxadiazol-5-yl]methyl}-2-{2-oxa-6-azaspiro[3.3]heptan-6-yl}-1,3-thiazole-4-carboxamide]	* (* = 0 μM ≤ SC150 < 0.1 μM)
O=C(NCc1nc(-c2cc3c(NCC4CC4)cccc3n2CC(F)(F)F)no1)C1CC1 [Compound 165B, N-[(3-{4-[(cyclopropylmethyl)amino]-1-(2,2,2-trifluoroethyl)-1H-indol-2-yl}-1,2,4-oxadiazol-5-yl)methyl]cyclopropanecarboxamide]	** (** = 0.1 μM ≤ SC150 < 0.5 μM)
CCOC1CCCC1n1cc(C(=O)NCc2nc(-c3cc4c(N[C@@H]5CCN(C)C[C@@H]5F)cccc4n3CC(F)(F)F)no2)cn1 (stereo in doubt) [Compound 375B, 1-[(1R,2R)-2-ethoxycyclopentyl]-N-{[3-(4-{[(3S,4R)-3-fluoro-1-methylpiperidin-4-yl]amino}-1-(2,2,2-trifluoroethyl)-1H-indol-2-yl)-1,2,4-oxadiazol-5-yl]methyl}-1H-pyrazole-4-carboxamide]	* (* = 0 μM ≤ SC150 < 0.1 μM)
CN1CC[C@@H](Nc2cccc3c2cc(-c2noc(CNC(=O)c4cc(C(C)(C)C)on4)n2)n3CC(F)(F)F)[C@@H](F)C1 [Compound 543B, 5-tert-butyl-N-{[3-(4-{[(3S,4R)-3-fluoro-1-methylpiperidin-4-yl]amino}-1-(2,2,2-trifluoroethyl)-1H-indol-2-yl)-1,2,4-oxadiazol-5-yl]methyl}-1,2-oxazole-3-carboxamide]	* (* = 0 μM ≤ SC150 < 0.1 μM)

Same assay, conditions: concentration to increase DNA binding by […], incubated at either 27° C. or 29° C. for 60 min

SMILES	SC150 (μM)
CN1CC[C@H](Nc2cccc3c2cc(-c2ccc(CNC4CC4)cc2)n3CC(F)(F)F)[C@H](F)C1 (racemic) [Compound 42A, (+/−)-2-{4-[(cyclopropylamino)methyl]phenyl}-N-[(3R,4S)-3-fluoro-1-methylpiperidin-4-yl]-1-(2,2,2-trifluoroethyl)-1H-indol-4-amine]	++++ (++++ = 10 μM ≤ SC150 < 35 μM)
O=S1(=O)CCC(Nc2cccc3c2cc(-c2ccc(CO)cc2)n3CC(F)(F)F)CC1 [Compound 27A, 4-({2-[4-(hydroxymethyl)phenyl]-1-(2,2,2-trifluoroethyl)-1H-indol-4-yl}amino)-1λ^6-thiane-1,1-dione]	++ (++ = 2 μM ≤ SC150 < 5 μM)
CN1CCC(NCc2ccc3c(c2)cc(-c2ccc(CNc4ccc(S(C)(=O)=O)cc4)cc2)n3CC(F)(F)F)CC1 [Compound 36A, N-{[2-(4-{[(4-methanesulfonylphenyl)amino]methyl}phenyl)-1-(2,2,2-trifluoroethyl)-1H-indol-5-yl]methyl}-1-methylpiperidin-4-amine]	++ (++ = 2 μM ≤ SC150 < 5 μM)
